This is an account of results in patent US10857180B2, “Pharmaceutical composition for improving health, cure abnormalities and degenerative disease, achieve anti-aging effect of therapy and therapeutic effect on mammals and method thereof” (priority 2014, dated 2020).

One data set deals with HL-60 cells. Kind of data set: Morphological and growth characteristics of HL-60 cells. The data set is classed as cell-based, human. Particulars: sulfates, living cell culture. From the text: However, articles about an important role of EMT in the study of lymphomas and leukemias as well have started coming out recently, which is an interesting stage in the research into the tumor process as a whole, since these tumors radically differ from “usual solid neoplasias” in their histogenesis and, accordingly, in their phenotypic characteristics. Thus, such comprehensive research into adhesion proteins and cell cytoskeleton in the tumor cells of Burkitt lymphoma and acute promyelocyte leukemia after the action of the group of components under study is a relevant and contemporary attempt of a deeper analysis of the modification of a cell phenotype of tumor cells in order to assess changes in the degree of their malignancy. Materials and methods for leukemia cell lines HL-60 and Namalva and cell culture conditions will now be described. […] The first plate was for coloring cells with trypan blue and the second one was for the MTT assay.
After preparation of the corresponding concentrations of the components, they were introduced into appropriate wells of the plate in which HL-60 or Namalva cell were in complete medium. The volume of the culture medium with cells was 100 mcl per well and the concentration of cells in the suspension was 3×10^5 cells/ml (3×10^6/plate). […]

The subject of data set [1] is renal cell carcinoma (PA) cells. The experiment in a line: Transformation of PA tumor cells into type A/B cells (trypan blue). The data set is classed as cell-based, rat. Particulars: for concentration of cells of type A at first calculation: 10 hours after start, both concentration models; for time for 80% of the transformation into phenotype A: total time 140 hours. The source says:
Staining of Cell Suspension with Trypan Blue and Visual Control of Changes in the Shape, Color and Size of the Cells will now be discussed. The visual control method was based on the observation of state of the plasma membrane permeability after the action of materials under study, and reflects the degree of membrane's damage, making it possible to estimate an ability of nuclear proteins to absorb the dye.
To make the analysis, the cell suspension, after it was exposed to the action of materials, in a volume of 20 mcl was mixed with 20 mcl of trypan blue solution and resuspended. The obtained solution was placed in a hemocytometer chamber for visual analysis and quantitative estimation of the cells. To make the quantitative estimation of the cells, they were separated from the substrate using Versene solution and counted by staining cells with trypan. A change in the color of a cell was indicative of the violation of intactness of the cell membrane, and the more pronounced was the coloration, the less viable the cell was. […] They are easily distinguishable from dark damaged cells and easily identified with ordinary light microscope.
Primary cell culture for our in vitro experiments was obtained by enzymatic treatment of tumor material (using trypsin solution) from a strain of renal cell carcinoma (PA) in a rat Visually (after its removal from the animal), the tumor looked as a nodular fleshy growth of a whitish-pink color of rather dense consistency, marginated from other tissues by a joint capsule. The main morphological signs of PA tumor in the animal can be described as follows. Small (1.5 to 2 grams) fragments without vessels and blastic lesions were excised aseptically from the surgically removed tumor and then cut them with scissors to smaller pieces of 0.2 to 0.3 mm in size and cultured in a solution of trypsin. The culture medium contained the following components: RPMI-1640 (Sigma, USA) as the base plus 10% newborn calf serum and 40 mcg/ml of gentamicin. Trypsinization was performed in a humidified atmosphere of 5% CO2 at 37° C. with constant mixing of the contents in a magnetic stirrer. The isolated cells were washed three times in a culture medium by centrifuging and before starting the experiment a quantitative assessment of cells was carried out in the Goryaev chamber with supravital staining of the cells with trypan blue.
Analysis of the effect of all components on the renal cell carcinoma (PA) was conducted to determine the relationship between the amount of the preparation (concentration characteristics of the component) and the quantitative characteristics of the cells. Assessment of the effect of the components was carried out on 2 concentration models with 30 and 300 thousand original tumor cells. After the cells were cultured, cell suspensions were prepared in the plates with the culture medium and an effect of the preparations (in various concentrations) on the tumor cells was assessed. The experiment was started with the concentration of 10 mg of the active substance per 1 ml of the solvent (saline with 5% glucose).
The amount of culture medium in each well was 200 mcl for 30 thousand cells and 2 ml for 300 thousand cells, respectively. The amounts of drugs (active substances) for 2 concentration models differed according to the amount of cells and culture medium, i.e., the amount of drug in the experiment with 300 thousand cells was ten times as large as compared with the same in the experiment with 30 thousand cells. The result of effects of the components is shown in FIGS. 22, 23 for light isotope components and in FIG. 25 for the elements with natural distribution of isotopes. Assessment of the effect of the components was performed by comparing the external factors of cells (color, size, shape) prior to the experiment and after staining. […]

For data set [2], the system named is human colon adenocarcinoma (COLO 205 line) cells. The experiment in a line: Immunocytochemistry (H-Score) of COLO 205 cells. The data set is classed as cell-based. On the procedure:
(§1) When making the immunocytochemistry (ICC) assay, cells on microscope glasses (cytospin preparations) were fixed in the solution (methanol+acetone 1:1) for 2 hours at t 20° C. and incubated with 1% solution of bovine serum albumin (BSA) for 20 minutes. Then the monoclonal antibodies-CD44 (Diagnostic BioSystems), E-cadherin (ThermoScientific), N-cadherin (NeoMarker, BioLegend), SLUG (GeneTex)—were applied for the time period specified by the manufacturer (30 to 60 minutes), after which the Poly Vue imaging system conjugated with peroxidase was used and the enzyme activity was detected using diaminobenzidine (ThermoScientific) as a substrate. After the immunocytochemical reaction the preparations were washed with water and counterstained with hematoxylin-eosin (for 15 to 30 seconds).
(§2) The results were analyzed by counting cells with expression (brown colored cells) using a light microscope, and were assessed using the classical H-Score method: S=1×A+2×B+3×C, where S is the H-Score index giving a range of 0 (protein is not detected) to 300 (high-level expression in 100% of the cells); A is the percentage of weakly staining cells, B is the percentage of moderately staining cells and C is the percentage of strongly staining cells.

The test system of data set [3] is human breast cancer (MCF-7 line) cells. Kind of data set: Immunocytochemistry (H-Score) of MCF-7 cells. The data set is classed as cell-based. The protocol:
as §1, §2

Data set [4] relates to normal rat kidney cells (NRK cell line). The experiment in a line: Effect on normal rat kidney cells versus Doxorubicin. From the text:
An immortalized cell line is a stable, capable of unlimited proliferation cell line that consists of cells with […] in culture.

The subject of the next data set is A-549 cell line. Kind of data set: Scratch assay, A-549 cells. The note with it: for time of restoration of the cell monolayer: dose not stated, 24 hours in the control; for restoration of the cell monolayer after 72 hours: ^64Zn 20 and 30 mcg/ml, ^39K 2 mg/ml, control restored after 24 hours.
Data set [5] concerns human non-small cell lung cancer (line A-549) cells. The experiment in a line: Immunocytochemistry (H-Score) of A-549 cells. The data set is classed as cell-based. On the procedure: as §1, §2
In data set [6] the test system is normal rat kidney cells (NRK cell line). The experiment in a line: Scratch assay, NRK cells. Particulars: various doses; as in the control. The data set is classed as cell-based.
Method: (§3) The cells of A-549, A-431, NRK, HaCaT, MM-4, normal fibroblasts (derived from the Bank of Cell Lines from human and animal tissues, R. E. Kavetsky Institute of Experimental Pathology, Oncology and Radiobiology, National Academy of Sciences of Ukraine) were cultured in complete culture medium RPMI 1640/DMEM (PAA, Austria) (depending on the cell type) supplemented with 10% fetal calf serum (PAA, Austria) and incubated in 5% CO2 humidified atmosphere at 37° C. The culture medium was replaced in 2 to 3 days and the cells were passaged in 4 to 5 days.
(§4) Analysis of the influence of the components under study on the cell migration rate was performed using the scratch assay method. Cells (5×10^4/well) were seeded into the wells of a 12-well plate in 2 repeats in RPMI-1640/DMEM culture medium supplemented with 10% PBS, 40 mcg/ml of gentamicin and incubated in 5% CO2 humidified atmosphere at 37° C. for 24 hours.
(§5) The plate was incubated in a CO2 incubator for additional 48 hours. After the cells formed a dense monolayer it was damaged (by making a “scratch”) and the growth medium was replaced to remove cell debris and smooth the edges of the “scratch.” The rate of cell migration was analyzed using an inverted microscope and by photographing cells in the area of injury. The migration activity of cells was fixed at several time points (depending on the cell line analyzed). The microphotomicrographs were analyzed and the cell incubation time needed to restore the monolayer was determined for all experimental groups.

Method for A-549 cell line: as §3, §4, §5

Take `O=S(=O)([O-])[O-].[24Mg+2]` [^24Mg]: the “morphological and growth characteristics (adhesion)” value in the data set on HL-60 cells is given as “significant enhancement of adhesion of cells to the substrate”. In data set [1], the “concentration of cells of type A at first calculation” value was 100%, the “changes (cell transformation) in the first 10 hours” value (shortened to “changes (cell transformation)”) is given as 62% and the “time for 80% of the transformation into phenotype A” value is no more than 45 h. The “cells of type A” value in data set [1] (^24Mg 0.4 mg/ml) is recorded as “about 5%”. In data set [1] (^24Mg 2 mg/ml), the “cells of type A” value is recorded as 25% and the “cells of type B” value amounted to 75%. Also, the “cells of type A” value in data set [1] (^24Mg 10 mg/ml) was found to be 100%. Further, in data set [2], the “number of E-cadherin-positive cells” value is “increasing the number”; the “slug transcription factor expression” value is “in the cytoplasm and in the nucleus”. In data set [3], the “number of Slug-positive cells” value is recorded as “insignificantly influenced”. The “effect on functional properties of NRK cells” value in data set [4] is “did not affect functional properties”. Besides, in the data set with A-549 cell line, the “time of restoration of the cell monolayer” value (shortened to “time … of the cell monolayer”) worked out at 72 h.
`[39K+].[Cl-]` [^39K]: in data set [1], the “time of transformation of 100% initial tumor cells into phenotype A” value was 80 h, the “concentration of cells of type A at first calculation” value was 100%, the “changes (cell transformation)” value amounted to 40% and the “time for 80% of the transformation into phenotype A” value was no more than 20 h. Moreover, the A cells entry in data set [1] (^39K 2 mg/ml) is “About 50%”. Further, in data set [1] (^39K 10 mg/ml), the “cells of type A” value is listed as 100%. For the same compound, the “number of slug-positive cells with nuclear expression” value in data set [5] is reported as “significantly decreased”. The “number of cells with E-cadherin” value in data set [5] (dose of IC50) is on record as “inhibition”. Moreover, in data set [2], the “number of E-cadherin-positive cells” value is “significantly increased” and the “slug transcription factor expression” value was “increased its expression in the cytoplasm”. Besides, the “E-cadherin, H-Score scale” value in data set [2] (87 in the control) is given as 184. Further, the “number of Slug-positive cells” value in data set [3] is “insignificantly influenced”. The “time of restoration of the damaged monolayer” value in data set [6] was 30 h. In the data set on A-549 cell line, the “restoration of the cell monolayer after 72 hours” value is “incomplete” and the “time … of the cell monolayer” value turned out to be 72 h.
For the compound `O=S(=O)([O-])[O-].[64Zn+2]` [^64Zn], the “morphological and growth characteristics (adhesion)” value in the data set with HL-60 cells was “significant enhancement of adhesion of cells to the substrate”. In addition, in data set [1], the “time of transformation of 100% initial tumor cells into phenotype A” value was no more than 50 h, the “changes (cell transformation)” value came out at 80% and the “time for 80% of the transformation into phenotype A” value was no more than 10 h. Besides, the A cells in data set [1] (^64Zn 0.08 mg/ml) was 100%. In addition, the “cells of type A” value in data set [1] (^64Zn 0.128 mg/ml) is on record as “about 30%”. Besides, the “cells of type A obtainable with 1 microgram of ^64Zn sulfate” value in data set [1] (assuming 50% of cells transformed) is on record as 23438 cells. For the same compound, the “cells of type A obtainable with 1 microgram of ^64Zn sulfate” value in data set [1] (assuming 100% transformation) is 938 cells. Moreover, the “slug-positive cells with cytoplasmic expression” value in data set [5] is “decrease”. Also, in data set [2], the “number of E-cadherin-positive cells” value is “significantly increased”; the “slug transcription factor expression” value is “in the cytoplasm and in the nucleus”. Also, in data set [3], the “number of Slug-positive cells” value is listed as “insignificantly influenced”. Moreover, in data set [4], the “effect on functional properties of NRK cells” value is recorded as “did not affect functional properties”. Also, in data set [6], the “time of restoration of the damaged monolayer” value was 30 h. For the same compound, in the data set with A-549 cell line, the “restoration of the cell monolayer after 72 hours” value is on record as “incomplete” and the “time … of the cell monolayer” value came to 72 h.
